The values below come from ChEMBL document CHEMBL5380790 (J Med Chem, 2023).

Active and inactive are the calls of the source.

A word on the inhibition: it is the share of the control response that was lost under treatment. Low readings indicate a response near the control, high ones a response far below the control. By IC50 is commonly meant the midpoint of a concentration-inhibition curve. Usually clearance stands for the rate of elimination divided by the concentration. Read a low clearance as a low capacity for elimination. The half-life is the time needed for the level to fall by half in the phase considered. Low readings indicate fast loss, high ones slow loss.

Data set [1] deals with Platelet-derived growth factor receptor alpha (Homo sapiens, UniProt P16234). Briefly: Inhibition of PDGFRA (unknown origin) at 1 uM using 33P-ATP as substrate incubated for 120 mins by radiometric kinase assay.
Data set [2] has as its target Tyrosine-protein kinase Lck (Homo sapiens, UniProt P06239). Briefly: Inhibition of LCK (unknown origin) at 1 uM using 33P-ATP as substrate incubated for 120 mins by radiometric kinase assay.
Data set [3] addresses T1, Receptor-type tyrosine-protein kinase FLT3 (Homo sapiens, UniProt P36888).
T1 sequence (P36888 whole entry): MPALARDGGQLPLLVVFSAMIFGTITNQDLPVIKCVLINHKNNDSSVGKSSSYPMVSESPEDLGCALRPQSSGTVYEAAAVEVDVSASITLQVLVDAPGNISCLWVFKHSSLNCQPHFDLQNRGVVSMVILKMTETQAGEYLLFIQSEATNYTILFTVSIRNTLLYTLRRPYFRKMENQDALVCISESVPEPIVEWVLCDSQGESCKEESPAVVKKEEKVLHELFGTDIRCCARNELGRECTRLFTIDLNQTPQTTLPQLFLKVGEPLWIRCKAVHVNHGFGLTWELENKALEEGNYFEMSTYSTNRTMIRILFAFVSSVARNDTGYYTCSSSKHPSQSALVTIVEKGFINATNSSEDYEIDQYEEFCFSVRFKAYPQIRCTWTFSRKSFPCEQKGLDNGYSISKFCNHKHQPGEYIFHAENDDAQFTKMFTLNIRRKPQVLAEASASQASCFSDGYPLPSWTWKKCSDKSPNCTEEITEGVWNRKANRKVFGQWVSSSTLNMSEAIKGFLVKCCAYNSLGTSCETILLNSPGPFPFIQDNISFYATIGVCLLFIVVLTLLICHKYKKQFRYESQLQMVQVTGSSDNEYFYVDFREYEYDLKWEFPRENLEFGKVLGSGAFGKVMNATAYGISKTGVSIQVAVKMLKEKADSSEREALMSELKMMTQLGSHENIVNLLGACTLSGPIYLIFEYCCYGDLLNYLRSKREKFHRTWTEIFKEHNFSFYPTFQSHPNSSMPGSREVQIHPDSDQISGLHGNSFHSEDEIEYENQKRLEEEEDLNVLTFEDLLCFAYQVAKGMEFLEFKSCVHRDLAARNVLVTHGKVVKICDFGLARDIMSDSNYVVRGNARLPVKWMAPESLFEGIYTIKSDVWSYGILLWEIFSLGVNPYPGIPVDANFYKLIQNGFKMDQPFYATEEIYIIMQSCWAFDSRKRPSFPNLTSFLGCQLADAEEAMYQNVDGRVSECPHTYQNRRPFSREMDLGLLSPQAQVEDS
Briefly: Inhibition of FLT3 (unknown origin) using 33P-ATP as substrate incubated for 120 mins by radiometric kinase assay.

The target in data set [4] is Receptor-type tyrosine-protein kinase FLT3 (Homo sapiens) (UniProt P36888). Briefly: Binding affinity to human FLT3 in human HEK293 cells at 1 uM by NanoBRET assay. The class given is cell-based. (In general: In BRET a luciferase serves as donor, and the signal depends on an acceptor being close.)
The nature of data set [5]: Plasma clearance in CD-1 mouse at 0.2 mg/kg, iv and measured upto 24 hrs. In kind it is ADME, organism-based.
A short description of data set [6]: Plasma clearance in Beagle dog at 0.2 mg/kg, iv and measured upto 24 hrs. In kind it is ADME, organism-based, Canis lupus familiaris.
The nature of data set [7]: Volume of distribution at steady state in Beagle dog at 0.2 mg/kg, iv and measured upto 24 hrs. In kind it is ADME, organism-based, Canis lupus familiaris. The note with it: in vivo, read-out: Vdss.
A short description of data set [8]: Half life in Beagle dog at 0.2 mg/kg, iv and measured upto 24 hrs. The class given is ADME, organism-based, Canis lupus familiaris. To be noted: in vivo.
For a further data set, the system named is GIST-430/654. In kind it is functional, organism-based. The note with it: Homo sapiens, dose 35.0 mg/kg, route po, time 30.0 day.

Sequence of Platelet-derived growth factor receptor alpha (P16234 whole entry): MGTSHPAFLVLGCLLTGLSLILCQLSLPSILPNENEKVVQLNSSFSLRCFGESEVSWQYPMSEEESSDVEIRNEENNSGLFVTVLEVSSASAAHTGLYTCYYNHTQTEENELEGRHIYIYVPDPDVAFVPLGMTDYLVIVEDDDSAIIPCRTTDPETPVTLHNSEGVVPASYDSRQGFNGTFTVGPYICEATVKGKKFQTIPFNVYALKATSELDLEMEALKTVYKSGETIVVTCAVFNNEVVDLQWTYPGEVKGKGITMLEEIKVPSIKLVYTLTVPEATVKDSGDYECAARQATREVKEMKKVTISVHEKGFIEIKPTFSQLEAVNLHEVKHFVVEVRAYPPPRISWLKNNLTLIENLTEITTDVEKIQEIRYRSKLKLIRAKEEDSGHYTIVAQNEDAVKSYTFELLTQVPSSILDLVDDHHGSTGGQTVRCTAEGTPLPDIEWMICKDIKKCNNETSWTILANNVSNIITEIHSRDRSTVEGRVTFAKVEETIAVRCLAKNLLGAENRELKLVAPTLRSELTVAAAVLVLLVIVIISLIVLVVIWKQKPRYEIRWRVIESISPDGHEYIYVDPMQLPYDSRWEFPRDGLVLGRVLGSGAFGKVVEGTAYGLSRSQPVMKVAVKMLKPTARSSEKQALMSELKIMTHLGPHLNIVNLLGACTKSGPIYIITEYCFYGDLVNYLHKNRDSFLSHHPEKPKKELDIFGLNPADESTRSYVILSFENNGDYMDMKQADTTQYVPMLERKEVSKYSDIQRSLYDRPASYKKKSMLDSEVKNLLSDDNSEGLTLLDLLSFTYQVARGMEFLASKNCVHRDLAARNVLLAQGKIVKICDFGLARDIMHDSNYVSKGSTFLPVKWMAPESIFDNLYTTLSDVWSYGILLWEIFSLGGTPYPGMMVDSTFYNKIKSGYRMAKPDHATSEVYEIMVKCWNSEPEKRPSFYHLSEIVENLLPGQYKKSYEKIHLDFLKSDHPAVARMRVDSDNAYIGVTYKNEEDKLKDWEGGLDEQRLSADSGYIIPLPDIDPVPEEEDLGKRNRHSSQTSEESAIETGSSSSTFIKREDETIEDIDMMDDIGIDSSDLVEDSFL
Sequence of Tyrosine-protein kinase Lck (P06239 2-509 limits assumed): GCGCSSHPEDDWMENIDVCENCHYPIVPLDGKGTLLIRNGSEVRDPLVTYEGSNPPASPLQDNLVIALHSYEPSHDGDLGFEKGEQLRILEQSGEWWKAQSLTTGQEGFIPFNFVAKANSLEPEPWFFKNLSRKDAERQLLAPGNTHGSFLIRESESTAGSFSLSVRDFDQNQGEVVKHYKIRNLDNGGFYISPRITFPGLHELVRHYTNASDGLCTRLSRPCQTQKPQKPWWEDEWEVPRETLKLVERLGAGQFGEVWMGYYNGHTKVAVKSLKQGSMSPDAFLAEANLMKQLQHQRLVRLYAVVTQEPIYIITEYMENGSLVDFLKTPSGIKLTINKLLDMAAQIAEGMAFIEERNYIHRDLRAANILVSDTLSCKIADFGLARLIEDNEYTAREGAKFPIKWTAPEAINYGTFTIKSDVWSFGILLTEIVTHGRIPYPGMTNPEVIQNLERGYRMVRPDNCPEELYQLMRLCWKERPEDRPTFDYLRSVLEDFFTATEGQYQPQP

With `Cn1cc(-c2ccc(CNc3cc(-c4cnc5cc(OCCCN6CCCC6)ccn45)ncn3)cc2)cn1` [IDRX-42], the inhibition in data set [1] and in data set [2] was above 80% throughout. This molecule yielded an IC50 in [3] of 141 nM. In addition, in data set [4], the Activity amounted to 45%. The clearance in data set [5] is 18.3 mL/min/kg; in [6], 36.7 mL/min/kg. The Vd in data set [7] stood at 34.6 L/kg. For the same molecule, the half-life in data set [8] is 9.6 h. Besides, the outcome in the data set with GIST-430/654 was Active.
